From patent EP3818828A1 (priority 2019, dated 2021)

Legend:
[1] = tested on: zucchini, cucumber, flax, and tomato; assay: Crop safety in the field efficiency tests; type: in vivo; conditions: at the test doses
Text: The variety of zucchini was Zaoqing F1 (manufactured by Wuwei Dadi Seed Industry Co., Ltd.), which was sown on July 29th, 2016. The first application was started on August 26th, at the early onset of powdery mildew (the average disease index is 10.07). The instrument for application was Agrolex HD 400 Model hand operating knapsack sprayer, which employed a cone nozzle. Each agent was formulated into the desired concentrations according to the usage amount of the control clear water. Both sides of the leaves were sprayed evenly so that the leaves were wetted by the liquor without loss. 10% of 3-(3',4'-methylenedioxy phenyl)-N-n-propyl acrylamide EC and 14% of 3-(3',4'-methylenedioxy phenyl)-piperidine acrylate EC were both diluted at a concentration of 0.50 mg/mL (active ingredients); the control agent, 430 g/L of tebuconazole SC (manufactured by Yantai Keda Chemical Co., Ltd.) was also diluted at a concentration of 0.50 mg/mL (active ingredients); additionally clear water was used as the control. Thereafter, applications were conducted every 7 days consecutively for 4 times. 10 days after the last application, the number of sick leaves at each grade of powdery mildew was investigated for the whole plant following the grading standard of 9 grades, to calculate the disease index and the control effect.
The variety of flax is Zhangya No. 2. […]

Pythium ultimum = assay: Supplementary ex vivo determination of antifungal activity; type: cell-based; conditions: compared with carbendazim
Experimental: The inhibition of samples for testing on the mycelial growth of plant pathogenic fungi for testing is determined with a growth rate method. 3-(3',4'-methylenedioxy phenyl)-N-n-propyl acrylamide, 3-(3',4'-methylenedioxy phenyl)-piperidine acrylate and five control agents are dissolved with dimethyl sulfoxide (DMSO), then formulated at 5-7 concentrations of different gradients for test following the trial test results, with the same concentration of DMSO as the control solvent, each treatment in triplicate. Fungal cakes with a diameter of 4 mm are taken from the edge of the colony, inoculated into the center of a PDA plate containing different agents of different concentrations and the DMSO control, with one piece of fungal cake inoculated in each plate (with a diameter of […]), and incubated in a constant temperature incubator at a temperature of 22±1.5°C. 7 days later (10-20 days may be needed for some pathogenic fungi), the diameter of the colony is measured with a cross over method according to the mycelial growth profile of the control pathogenic fungi, then the inhibition rate of mycelial growth is calculated.

Oidium lini = assay: Field efficiency test, flax powdery mildew; type: in vivo; conditions: 0.50 mg/mL (active ingredients)
Experimental: The formulation of emulsifiable concentrate is the same as that in Embodiment 3.
The variety of flax is Zhangya No. 2. 10% of 3-(3',4'-methylenedioxy phenyl)-N-n-propyl acrylamide EC and 14% of 3-(3',4'-methylenedioxy phenyl)-piperidine acrylate EC were both diluted at a concentration of 0.50 mg/mL (active ingredients); the control agent, 430 g/L of tebuconazole SC, was also diluted at a concentration of 0.50 mg/mL (active ingredients); additionally clear water was used as the control. The first application was started at the first appearance of spots for flax powdery mildew (Oidium lini) (natural incidence), and the second application was carried out 10 days later. The instrument for application was a WS-18D knapsack electric sprayer, which employed a cone nozzle. Each agent was formulated into the desired concentrations according to the usage amount of the control clear water. Both sides of the leaves were sprayed evenly. 10 days after the second application, the number of sick leaves at each grade of powdery mildew was investigated for the whole plant following the grading standard of 9 grades, to calculate the disease index and the control effect.

[2] = tested on: Blumeria graminis f.sp.tritici; assay: In-vivo greenhouse control of wheat powdery mildew; conditions: winter wheat, 0.20 mg/mL (active ingredients), application from early onset
Experimental: 3.88 g of 3-(3',4'-methylenedioxy phenyl)-N-n-propyl acrylamide was weighed and dissolved in 25 g of absolute ethyl alcohol, then 6 g of emulsifier 0203B was added, and mixed uniformly with stirring to get 10% of 3-(3',4'-methylenedioxy phenyl)-N-n-propyl acrylamide EC.
5.61 g of 3-(3',4'-methylenedioxy phenyl)-piperidine acrylate was weighed and dissolved in 25 g of absolute ethyl alcohol, then 6 g of emulsifier 0203B was added, and mixed uniformly with stirring to get 14% of 3-(3',4'-methylenedioxy phenyl)-piperidine acrylate EC.
Winter wheat (Variety: Huixian Red) was sown in pots in a greenhouse, and inoculated with a fresh spore suspension of Blumeria graminis f.sp.tritici by spraying on its leaves and stems at the stage of 2 leaves. The first application was started at the early onset of powdery mildew. Both sides of the leaves were sprayed evenly with a small hand-held sprayer so that the leaves were wetted by the liquor without loss. 10% of 3-(3',4'-methylenedioxy phenyl)-N-n-propyl acrylamide EC and 14% of 3-(3',4'-methylenedioxy phenyl)-piperidine acrylate EC were both diluted at two concentrations of 0.20 and 0.143 mg/mL (active ingredients), and the control agent, 15% of triazolone WP, was also diluted at two concentrations of 0.20 and 0.143 mg/mL (active ingredients), additionally clear water was used as the control. […]

Pyricularia grisea = assay: microbe, parasite or virus in culture; type: cell-based; conditions: for Average Diameter of the Colony: 1 mg/mL; for inhibition at 1000 µg/mL: read-out: Inhibition Rate

SMILES | safety for zucchini, cucumber, flax, and tomato [1] | antifungal activity against Pythium ultimum (Pythium ultimum) | Control Effect (Oidium lini) [%] | Control Effect [2] [%] | Average Diameter of the Colony (Pyricularia grisea) [cm] | inhibition at 1000 µg/mL (Pyricularia grisea) [%]
CCCNC(=O)/C=C/c1ccc2c(c1)OCO2 [3-(3',4'-methylenedioxyphenyl)-N-n-propyl acrylamide] | safe for zucchini, cucumber, flax, and tomato | superior to that of the control agent, carbendazim | 83.70 | 86.97 | 5.30 | 41.1
O=C(/C=C/c1ccc2c(c1)OCO2)N1CCCCC1 [3-(3',4'-methylenedioxyphenyl)-piperidine acrylate] | safe for zucchini, cucumber, flax, and tomato | superior to that of the control agent, carbendazim | 41.82 | 59.11 | 1.60 | 82.2
